According to patent publication US10822348B2, “Inhibitors of Bruton's tyrosine kinase and methods of their use” (JANSSEN PHARMACEUTICA NV, priority 2015, dated 2020):

These compounds were tested against unphosphorylated-BTK kinase domain (UP-BTK), GST-tagged human BTK (389-659aa) (Homo sapiens (Human), UniProt Q06187) (assay: BTK kinase Lanthascreen binding assay). Settings: negative log of the IC50 in molar; 60 minutes incubation, 50 nM Tracer 236.
Chain of unphosphorylated-BTK kinase domain (UP-BTK), GST-tagged human BTK (389-659aa) (Q06187 389-659): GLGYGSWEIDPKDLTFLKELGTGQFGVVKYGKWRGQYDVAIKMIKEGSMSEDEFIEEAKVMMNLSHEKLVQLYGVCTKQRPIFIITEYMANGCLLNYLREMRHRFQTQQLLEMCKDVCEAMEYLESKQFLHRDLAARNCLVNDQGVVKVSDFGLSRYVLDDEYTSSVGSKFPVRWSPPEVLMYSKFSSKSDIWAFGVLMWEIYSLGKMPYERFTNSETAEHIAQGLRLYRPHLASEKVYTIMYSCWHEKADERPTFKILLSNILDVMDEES
Procedure: BTK Kinase Lanthascreen Binding Assay:
A BTK kinase lanthascreen binding assay monitors compound binding to unphosphorylated-BTK kinase domain (UP-BTK), by competing with a fluorescent labeled tracer. […] Data were analyzed using Xlfit™ version 5.3 from ID Business Solutions (Guildford), Microsoft Excel add-in. pIC50 refers to the negative log of the IC50 in molar.
For `C=CC(=O)N1CCC[C@@H](NC(=O)c2sc3nccc4c3c2NC(=O)N4c2ccc(Oc3ccccc3)cc2C)C1` (single isomer, unassigned) [Example 9, (R)—N-(1-Acryloylpiperidin-3-yl)-5-(*S)-(2-methyl-4-phenoxyphenyl)-4-oxo-4,5-dihydro-3H-1-thia-3,5,8-triazaacenaphthylene-2-carboxamide], the “BTK_I_binding pIC50” value was 8.1.

Same assay, conditions: read-out: BTK_I_binding pIC50 (converted)
`C=CC(=O)N1C[C@@H](O)C[C@@H](NC(=O)c2sc3nccc4c3c2NC(=O)N4c2ccc(Oc3ccccc3)cc2C)C1` (single isomer, unassigned) [Example 2, N-((3R,5S)-1-Acryloyl-5-hydroxypiperidin-3-yl)-5-(*S)-(2-methyl-4-phenoxyphenyl)-4-oxo-4,5-dihydro-3H-1-thia-3,5,8-triazaacenaphthylene-2-carboxamide] showed an IC50 of 6.31 nM.

Same assay, conditions: unphosphorylated-BTK kinase domain; 60 minutes incubation; pIC50 = negative log of the IC50 in molar
`C=CC(=O)N1C[C@H](NC(=O)c2sc3nccc4c3c2NC(=O)N4c2ccc(Oc3ccccc3)cc2C)C[C@@H](OC)C1` (relative stereo) [Example 481, N-((3R,5R)-1-Acryloyl-5-methoxypiperidin-3-yl)-5-(*S)-(2-methyl-4-phenoxyphenyl)-4-oxo-4,5-dihydro-3H-1-thia-3,5,8-triazaacenaphthylene-2-carboxamide] was tested, and the “BTK_I_binding pIC50” value was 8.2. `C=CC(=O)N1C[C@H](NC(=O)c2sc3nccc4c3c2NC(=O)N4c2ccc(Oc3ccccc3)cc2C)C[C@H](OC)C1` (relative stereo) [Example 482, N-((3R,5S)-1-Acryloyl-5-methoxypiperidin-3-yl)-5-(*S)-(2-methyl-4-phenoxyphenyl)-4-oxo-4,5-dihydro-3H-1-thia-3,5,8-triazaacenaphthylene-2-carboxamide] was tested, and the “BTK_I_binding pIC50” value was 8.0. For `C=CC(=O)N1C[C@H](O)C[C@@H](NC(=O)c2sc3nccc4c3c2NC(=O)N4c2ccc(Oc3ccccc3)cc2C)C1` (relative stereo) [Example 483, N-((3R,5R)-1-Acryloyl-5-hydroxypiperidin-3-yl)-5-(*S)-(2-methyl-4-phenoxyphenyl)-4-oxo-4,5-dihydro-3H-1-thia-3,5,8-triazaacenaphthylene-2-carboxamide], the “BTK_I_binding pIC50” value was 8.4. For `C=CC(=O)N1C[C@@H](F)C[C@@H](NC(=O)c2sc3nccc4c3c2NC(=O)N4c2ccc(Oc3ccccc3)cc2C)C1` (relative stereo) [Example 484, N-((3R,5S)-1-Acryloyl-5-fluoropiperidin-3-yl)-5-(*S)-(2-methyl-4-phenoxyphenyl)-4-oxo-4,5-dihydro-3H-1-thia-3,5,8-triazaacenaphthylene-2-carboxamide], the “BTK_I_binding pIC50” value was 8.0. In the case of `C=CC(=O)N1C[C@H](NC(=O)c2sc3nccc4c3c2NC(=O)N4c2ccc(Oc3ccccc3)cc2C)[C@@H](F)C1` (relative stereo) [Example 486, N-((3S,4S)-1-Acryloyl-4-fluoropyrrolidin-3-yl)-5-(*S)-(2-methyl-4-phenoxyphenyl)-4-oxo-4,5-dihydro-3H-1-thia-3,5,8-triazaacenaphthylene-2-carboxamide], the “BTK_I_binding pIC50” value is reported as 7.8. In the case of `C=CC(=O)N1C[C@H](NC(=O)c2sc3nccc4c3c2NC(=O)N4c2ccc(Oc3ccccc3)cc2C)[C@@H](OC)C1` (relative stereo) [Example 490, N-((3S,4S)-1-Acryloyl-4-methoxypyrrolidin-3-yl)-5-(*S)-(2-methyl-4-phenoxyphenyl)-4-oxo-4,5-dihydro-3H-1-thia-3,5,8-triazaacenaphthylene-2-carboxamide], the “BTK_I_binding pIC50” value is reported as 7.7. With `C=CC(=O)N1C[C@H](NC(=O)c2sc3nccc4c3c2NC(=O)N4c2ccc(Oc3ccccc3)cc2C)[C@H](OC)C1` (relative stereo) [Example 508, N-((3S,4R)-1-Acryloyl-4-methoxypyrrolidin-3-yl)-5-(*S)-(2-methyl-4-phenoxyphenyl)-4-oxo-4,5-dihydro-3H-1-thia-3,5,8-triazaacenaphthylene-2-carboxamide] the “BTK_I_binding pIC50” value was 7.7.
